The text below walks through data of PubChem BioAssay (NCI).

SMILES strings stand for the structures. “And” between values parts separate entries of the source, which are not always exact repeats. Identical values can stand only once.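 The compound was tested at five concentrations on cells cultured in 96-well plates, with a 48-hour exposure period. Here, GI50 denotes the concentration required for 50% inhibition of growth. TGI denotes the concentration required for complete inhibition of growth.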

Among the test systems are LOX IMVI melanoma; XF 498 CNS; HCT-116 colon; DU-145 prostate; MDA-MB-435; SN12K1 renal; CCRF-CEM leukemia; MDA-N; OVCAR-3 ovarian; M14 melanoma; SF-268 CNS; BT-549 breast; MCF7 breast; SF-539 CNS; KM20L2 colon; HOP-18 NSCLC.
What all share (experiment): inhibition of tumour cell growth, NCI panel, 48 h

For `COc1ccc2c(c1)c1c(C)c3cnccc3c(C)c1n2CCCN`, the TGI is 241 nM in the test on LOX IMVI melanoma; 942 nM in the test with XF 498 CNS; 303 nM and 1060 nM with HCT-116 colon; 389 nM in the test with DU-145 prostate; 190 nM in the test on MDA-MB-435; 239 nM in the test on SN12K1 renal. The TGI in the test with MDA-N is 306 nM; in the test on OVCAR-3 ovarian it was 1180 nM and 495 nM; in the test with M14 melanoma, 330 nM; in the test on SF-268 CNS, 204 nM and 425 nM; in the test on BT-549 breast, 2600 nM; with MCF7 breast, 663 nM and 108 nM. The TGI in the test on SF-539 CNS was 855 nM and 421 nM; in the test on KM20L2 colon, 685 nM; with HOP-18 NSCLC it was 1550 nM. The GI50 in the test on HCT-116 colon is 65.9 nM; in the test with CCRF-CEM leukemia it was 47.2 nM and < 10 nM; in the test on OVCAR-3 ovarian, 119 nM; in the test on SF-268 CNS, 63.3 nM and 57.7 nM; in the test on MCF7 breast, 16.2 nM; with SF-539 CNS, 175 nM.
